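Briefly, cells in 96-well plates were exposed to five compound concentrations for 48 h, and endpoints were estimated by linear interpolation. TGI is the concentration that stops growth completely.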
Experiments:
Assay in all cases: NCI anticancer screen, dose series, 48 h
CCRF-CEM leukemia = test system: CCRF-CEM leukemia
LOX IMVI melanoma = test system: LOX IMVI melanoma
KM12 colon = test system: KM12 colon
SF-268 CNS = test system: SF-268 CNS
SF-295 CNS = test system: SF-295 CNS
SNB-75 CNS = test system: SNB-75 CNS
OVCAR-3 ovarian = test system: OVCAR-3 ovarian
UO-31 renal = test system: UO-31 renal
SK-OV-3 ovarian = test system: SK-OV-3 ovarian
SNB-19 CNS = test system: SNB-19 CNS
A549 NSCLC = test system: A549 NSCLC
SK-MEL-28 melanoma = test system: SK-MEL-28 melanoma
HT29 colon = test system: HT29 colon
SW-620 colon = test system: SW-620 colon
M14 melanoma = test system: M14 melanoma
COLO 205 colon = test system: COLO 205 colon
OVCAR-8 ovarian = test system: OVCAR-8 ovarian
NCI/ADR-RES ovarian = test system: NCI/ADR-RES ovarian
MDA-MB-435 = test system: MDA-MB-435
DU-145 prostate = test system: DU-145 prostate

Compound: C#CCCCCC#Cc1ccccc1C(=O)OC
- TGI (CCRF-CEM leukemia): 32.4 µM
- TGI (LOX IMVI melanoma): 33.1 µM
- TGI (KM12 colon): > 100 µM
- TGI (SF-268 CNS): > 100 µM
- TGI (SF-295 CNS): > 100 µM
- TGI (SNB-75 CNS): 86.5 µM
- TGI (OVCAR-3 ovarian): > 100 µM
- TGI (UO-31 renal): > 100 µM
- TGI (SK-OV-3 ovarian): > 100 µM
- TGI (SNB-19 CNS): > 100 µM
- TGI (A549 NSCLC): > 100 µM
- TGI (SK-MEL-28 melanoma): > 100 µM
- TGI (HT29 colon): > 100 µM
- TGI (SW-620 colon): 46.1 µM
- TGI (M14 melanoma): > 100 µM
- TGI (COLO 205 colon): > 100 µM
- TGI (OVCAR-8 ovarian): 31.5 µM

Compound: C=CCN1C(=O)/C(=C/c2ccccc2)N=C1SC1OC(COC(=O)c2ccccc2)C(OC(=O)c2ccccc2)C1OC(=O)c1ccccc1 (stereo unspecified)
- TGI (CCRF-CEM leukemia): 70.4 µM
- TGI (LOX IMVI melanoma): > 100 µM
- TGI (NCI/ADR-RES ovarian): > 100 µM
- TGI (KM12 colon): > 100 µM
- TGI (SF-295 CNS): > 100 µM
- TGI (SNB-75 CNS): > 100 µM
- TGI (OVCAR-3 ovarian): > 100 µM
- TGI (MDA-MB-435): > 100 µM
- TGI (SK-OV-3 ovarian): > 100 µM
- TGI (SK-MEL-28 melanoma): > 100 µM
- TGI (SW-620 colon): > 100 µM
- TGI (DU-145 prostate): > 100 µM
- TGI (COLO 205 colon): > 100 µM
- TGI (OVCAR-8 ovarian): > 100 µM

Compound: O=C(O)CC/C(=N\Nc1nsc2ccccc12)c1ccccc1
- TGI (CCRF-CEM leukemia): 96.7 µM
- TGI (LOX IMVI melanoma): > 100 µM
- TGI (KM12 colon): > 100 µM
- TGI (SF-268 CNS): > 100 µM
- TGI (SNB-75 CNS): 61.3 µM
- TGI (OVCAR-3 ovarian): 75.3 µM
- TGI (UO-31 renal): > 100 µM
- TGI (SNB-19 CNS): > 100 µM
- TGI (A549 NSCLC): > 100 µM
- TGI (SK-MEL-28 melanoma): > 100 µM
- TGI (HT29 colon): > 100 µM
- TGI (SW-620 colon): > 100 µM
- TGI (M14 melanoma): > 100 µM
- TGI (COLO 205 colon): > 100 µM
- TGI (OVCAR-8 ovarian): > 100 µM

Compound: CCN1c2ccccc2-n2c(C)nnc2-c2c1n[nH]c2-c1ccccc1
- TGI (CCRF-CEM leukemia): 55.4 µM
- TGI (LOX IMVI melanoma): 89.2 µM
- TGI (NCI/ADR-RES ovarian): 73.1 µM
- TGI (KM12 colon): > 100 µM
- TGI (SF-268 CNS): > 100 µM
- TGI (SF-295 CNS): > 100 µM
- TGI (SNB-75 CNS): > 100 µM
- TGI (OVCAR-3 ovarian): > 100 µM
- TGI (MDA-MB-435): 82.9 µM
- TGI (UO-31 renal): > 100 µM
- TGI (SK-OV-3 ovarian): > 100 µM
- TGI (SNB-19 CNS): > 100 µM
- TGI (A549 NSCLC): > 100 µM
- TGI (SK-MEL-28 melanoma): > 100 µM
- TGI (HT29 colon): > 100 µM
- TGI (SW-620 colon): > 100 µM
- TGI (M14 melanoma): > 100 µM
- TGI (DU-145 prostate): > 100 µM
- TGI (COLO 205 colon): > 100 µM
- TGI (OVCAR-8 ovarian): > 100 µM

Compound: COC(=O)C1C(C(=O)OC)N(Cc2ccccc2)C(=O)N1Cc1ccccc1 (stereo unspecified)
- TGI (CCRF-CEM leukemia): > 100 µM
- TGI (LOX IMVI melanoma): > 100 µM
- TGI (NCI/ADR-RES ovarian): > 100 µM
- TGI (KM12 colon): > 100 µM
- TGI (SF-268 CNS): > 100 µM
- TGI (SF-295 CNS): > 100 µM
- TGI (SNB-75 CNS): > 100 µM
- TGI (OVCAR-3 ovarian): > 100 µM
- TGI (MDA-MB-435): > 100 µM
- TGI (UO-31 renal): > 100 µM
- TGI (SK-OV-3 ovarian): > 100 µM
- TGI (SNB-19 CNS): > 100 µM
- TGI (A549 NSCLC): > 100 µM
- TGI (SK-MEL-28 melanoma): > 100 µM
- TGI (HT29 colon): > 100 µM
- TGI (SW-620 colon): > 100 µM
- TGI (M14 melanoma): > 100 µM
- TGI (DU-145 prostate): > 100 µM
- TGI (COLO 205 colon): > 100 µM
- TGI (OVCAR-8 ovarian): > 100 µM
